This passage reports IC50 results from US11472798B2 (Mission Therapeutics Limited, priority 2014, dated 2022).

In this test the target is T1, UCHL1 (Homo sapiens, UniProt P09936).
T1 construct: made in house; host or cells: HEK293T
T1 sequence (P09936 1-223): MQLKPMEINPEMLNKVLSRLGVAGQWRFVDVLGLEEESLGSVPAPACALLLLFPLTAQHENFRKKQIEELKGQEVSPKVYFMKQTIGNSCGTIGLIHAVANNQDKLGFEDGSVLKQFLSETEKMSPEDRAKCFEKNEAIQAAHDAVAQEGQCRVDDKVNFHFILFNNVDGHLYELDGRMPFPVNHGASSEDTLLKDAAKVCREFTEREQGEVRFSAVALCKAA
The experiment in a line: UCHL1 biochemical IC50 assay (fluorescence polarisation). As to conditions: 30 min enzyme/compound pre-incubation at room temp, read after 2 hr incubation, read-out: Activity range (UCHL1 biochemical IC50 assay). In short, it runs like this: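 FLAG-UCHL1 purified from transfected HEK293T cells was preincubated 30 min at room temperature with compound (8 points, 100–0.03 μM final) in Tris pH 7.5 buffer with Tween 20, BSA and beta-mercaptoethanol. Reaction started with 50 nM TAMRA-peptide–ubiquitin isopeptide substrate; fluorescence polarisation (ex 540/em 590 nm) read at once and after 2 h.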
(In general: Polarisation of emitted light reports the rotation of a fluorescent probe.)

Structures are written as SMILES.

For the molecule `N#CN1CC[C@H](C(=O)Nc2cc(-c3cccc4[nH]ncc34)ccn2)C1` [Example 262, (S)—N-(4-(1H-indazol-4-yl)pyridin-2-yl)-1-cyanopyrrolidine-3-carboxamide], the IC50 was less than 1 µM.
As to `C#Cc1ccc2cnc(NC(=O)[C@H]3CCN(C#N)C3)cc2c1` [Example 263, (S)-1-cyano-N-(6-ethynylisoquinolin-3-yl)pyrrolidine-3-carboxamide], the half-maximal inhibitory concentration (IC50) fell in the range of 1 to 10 µM.
With `C#Cc1ccc2cnc(NC(=O)[C@H]3CCN(C#N)[C@H]3C)cc2c1` [Example 264, (2S,3S)-1-cyano-N-(6-ethynylisoquinolin-3-yl)-2-methylpyrrolidine-3-carboxamide], the half-maximal inhibitory concentration (IC50) was in the range of 1 to 10 µM.
`N#CN1CC[C@H](C(=O)Nc2cc3cc(C(N)=O)ccc3cn2)C1` [Example 265, (S)-3-(1-cyanopyrrolidine-3-carboxamido)isoquinoline-6-carboxamide]: the IC50 lay within 1 to 10 µM.
As to `C[C@H]1[C@@H](C(=O)Nc2cc3cc(-c4cn[nH]c4)ccc3cn2)CCN1C#N` [Example 266, (2S,3S)—N-(6-(1H-pyrazol-4-yl)isoquinolin-3-yl)-1-cyano-2-methylpyrrolidine-3-carboxamide], the half-inhibitory concentration (IC50) was less than 1 µM.
As for `N#CN1CC[C@H](C(=O)Nc2cc3ccccn3n2)C1` [Example 267, (S)-1-cyano-N-(pyrazolo[1,5-a]pyridin-2-yl)pyrrolidine-3-carboxamide], the IC50 fell in the range of 1 to 10 µM.
For `N#CN1CC[C@H](C(=O)Nc2cc(-c3ccccc3)ccn2)C1` [Example 268, (S)-1-cyano-N-(4-phenylpyridin-2-yl)pyrrolidine-3-carboxamide] the value was 1 to 10 µM; for `N#CN1CC[C@H](C(=O)Nc2cn3cc(C(F)(F)F)ccc3n2)C1` [Example 270, (S)-1-cyano-N-(6-(trifluoromethyl)imidazo[1,2-a]pyridin-2-yl)pyrrolidine-3-carboxamide], less than 1 µM; for `Cc1cccc(-c2cc(NC(=O)[C@H]3CCN(C#N)C3)nn2C)c1` [Example 271, (S)-1-cyano-N-(1-methyl-5-(m-tolyl)-1H-pyrazol-3-yl)pyrrolidine-3-carboxamide], less than 1 µM.
For `N#CN1CC[C@H](C(=O)Nc2cnc3ccccc3c2)C1` [Example 272, (S)-1-cyano-N-(quinolin-3-yl)pyrrolidine-3-carboxamide], the half-maximal inhibitory concentration (IC50) fell in the range of 1 to 10 µM.
Consider `CC(C)(C)c1ccnc(NC(=O)[C@H]2CCN(C#N)C2)c1` [Example 273, (S)-N-(4-(tert-butyl)pyridin-2-yl)-1-cyanopyrrolidine-3-carboxamide], for which the half-inhibitory concentration (IC50) was in the range of 1 to 10 µM.
For `N#CN1CC[C@H](C(=O)Nc2cc(-c3ccncc3)ncn2)C1` [Example 274, (S)-1-cyano-N-(6-(pyridin-4-yl)pyrimidin-4-yl)pyrrolidine-3-carboxamide] the value was 1 to 10 µM.
In the case of `N#CN1CC[C@H](C(=O)Nc2cc(-c3ccccc3)cnn2)C1` [Example 275, (S)-1-cyano-N-(5-phenylpyridazin-3-yl)pyrrolidine-3-carboxamide], the 50% inhibitory concentration (IC50) lay within 1 to 10 µM.
For `N#CN1CC[C@H](C(=O)Nc2cn3cc(-c4cnco4)ccc3n2)C1` [Example 276, (S)-1-cyano-N-(6-(oxazol-5-yl)imidazo[1 ,2-a]pyridin-2-yl)pyrrolidine-3-carboxamide], the IC50 is less than 1 µM.
For `CC(C)S(=O)(=O)N1CCc2nc(NC(=O)[C@H]3CCN(C#N)C3)sc2CC1` [Example 277, (S)-1-cyano-N-(6-(isopropylsulfonyl)-5,6,7,8-tetrahydro-4H-thiazolo[4,5-d]azepin-2-yl)pyrrolidine-3-carboxamide], the IC50 was less than 1 µM.
As for `COCCn1cc(-c2ccc(-n3cnc(NC(=O)[C@H]4CCN(C#N)C4)c3)cc2)cn1` [Example 278, (S)-1-cyano-N-(1-(4-(1-(2-methoxyethyl)-1H-pyrazol-4-yl)phenyl)-1H-imidazol-4-yl)pyrrolidine-3-carboxamide], the concentration for half-maximal inhibition (IC50) was less than 1 µM.
On to `N#CN1CC2CC2(C(=O)Nc2ncc(-c3ccccc3)s2)C1` (centres unmarked) [Example 279, 3-cyano-N-(5-phenylthiazol-2-yl)-3-azabicyclo[3.1.0]hexane-1-carboxamide], for which the IC50 lay in the range of 1 to 10 µM.

As a reminder, the IC50 is the concentration that gives 50% inhibition.
